# Measured values: PubChem BioAssay AID2060907 (Molecular Pharmacology Branch, DTP, NCI, 2025)
# Test system: 388556-164-R-J1-PDC complex spheroid viability
# Assay: Anticancer human tumor 388556-164-R-J1-PDC patient-derived colon adenocarcinoma cell line growth inhibition [RAS]
# Settings: for IC50: curve of first compound; for viability, T/C: stronger effect = lower value
# How it was run: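 Agents were tested in combination matrices in half-log decrements from a top concentration at or near clinical Cmax (10 microM if undetermined). Targets were multi-cell spheroids of tumour lines plus HUVEC and MSC stromal cells.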
# [1] = second compound 0.000949 µM, first compound 0.0316 µM
# [2] = second compound 0.000949 µM, first compound 0.1 µM
# [3] = second compound 0.000949 µM, first compound 0.316 µM
# [4] = second compound 0.000949 µM, first compound 1 µM
# [5] = second compound 0.000949 µM, first compound 3.16 µM
# [6] = second compound 0.000949 µM, first compound 10 µM
# [7] = second compound 0.003 µM, first compound 0.0316 µM
# [8] = second compound 0.003 µM, first compound 0.1 µM
# [9] = second compound 0.003 µM, first compound 0.316 µM
# [10] = second compound 0.003 µM, first compound 1 µM
# [11] = second compound 0.003 µM, first compound 3.16 µM
# [12] = second compound 0.003 µM, first compound 10 µM
# [13] = second compound 0.00949 µM, first compound 0.0316 µM
# [14] = second compound 0.00949 µM, first compound 0.1 µM
# [15] = second compound 0.00949 µM, first compound 0.316 µM
# [16] = second compound 0.00949 µM, first compound 1 µM
# [17] = second compound 0.00949 µM, first compound 3.16 µM
# [18] = second compound 0.00949 µM, first compound 10 µM
# [19] = second compound 0.03 µM, first compound 0.0316 µM
# [20] = second compound 0.03 µM, first compound 0.1 µM
# [21] = second compound 0.03 µM, first compound 0.316 µM
# [22] = second compound 0.03 µM, first compound 1 µM
# [23] = second compound 0.03 µM, first compound 3.16 µM
# [24] = second compound 0.03 µM, first compound 10 µM
# [25] = second compound 0.0949 µM, first compound 0.0316 µM
# [26] = second compound 0.0949 µM, first compound 0.1 µM
# [27] = second compound 0.0949 µM, first compound 0.316 µM
# [28] = second compound 0.0949 µM, first compound 1 µM
# [29] = second compound 0.0949 µM, first compound 3.16 µM
# [30] = second compound 0.0949 µM, first compound 10 µM
# [31] = second compound 0.3 µM, first compound 0.0316 µM
# [32] = second compound 0.3 µM, first compound 0.1 µM
# [33] = second compound 0.3 µM, first compound 0.316 µM
# [34] = second compound 0.3 µM, first compound 1 µM
# [35] = second compound 0.3 µM, first compound 3.16 µM
# [36] = second compound 0.3 µM, first compound 10 µM
# 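Note: spheroids exposed to compound for 7 days before readout.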
# 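Throughout, for viability, T/C: 100% = DMSO vehicle control luminescence.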
structure (smiles),measurement,setting,value
CC(C)NCC(C(=O)N1CCN(c2ncnc3c2C(C)CC3O)CC1)c1ccc(Cl)cc1 (stereo not drawn) + CCn1c(-c2cccnc2C(C)OC)c2c3cc(ccc31)N1CCOC(CC(NC(=O)C(C(C)C)N(C)C(=O)C3(F)CCN(C(=O)C#CC(C)(C)N(C)C)CC3)C(=O)N3CCCC(N3)C(=O)OCC(C)(C)C2)C1,IC50,second compound 0.000949 µM,> 10 µM
same,IC50,second compound 0.003 µM,> 10 µM
same,IC50,second compound 0.00949 µM,> 10 µM
same,IC50,second compound 0.03 µM,> 10 µM
same,IC50,second compound 0.0949 µM,> 10 µM
same,IC50,second compound 0.3 µM,> 10 µM
same,"viability, T/C",[1],104%
same,"viability, T/C",[2],98%
same,"viability, T/C",[3],99.6%
same,"viability, T/C",[4],89.8%
same,"viability, T/C",[5],105%
same,"viability, T/C",[6],85.4%
same,"viability, T/C",[7],105%
same,"viability, T/C",[8],104%
same,"viability, T/C",[9],102%
same,"viability, T/C",[10],99.1%
same,"viability, T/C",[11],102%
same,"viability, T/C",[12],81.8%
same,"viability, T/C",[13],108%
same,"viability, T/C",[14],102%
same,"viability, T/C",[15],101%
same,"viability, T/C",[16],90.7%
same,"viability, T/C",[17],107%
same,"viability, T/C",[18],91.3%
same,"viability, T/C",[19],106%
same,"viability, T/C",[20],111%
same,"viability, T/C",[21],84.6%
same,"viability, T/C",[22],98.4%
same,"viability, T/C",[23],106%
same,"viability, T/C",[24],81.5%
same,"viability, T/C",[25],84.8%
same,"viability, T/C",[26],101%
same,"viability, T/C",[27],93.8%
same,"viability, T/C",[28],99.9%
same,"viability, T/C",[29],106%
same,"viability, T/C",[30],79.2%
same,"viability, T/C",[31],94.5%
same,"viability, T/C",[32],102%
same,"viability, T/C",[33],86.6%
same,"viability, T/C",[34],87.8%
same,"viability, T/C",[35],95.5%
same,"viability, T/C",[36],72.6%
CC(C)n1nc(-c2ccc3oc(N)nc3c2)c2c(N)ncnc21 + CCn1c(-c2cccnc2C(C)OC)c2c3cc(ccc31)N1CCOC(CC(NC(=O)C(C(C)C)N(C)C(=O)C3(F)CCN(C(=O)C#CC(C)(C)N(C)C)CC3)C(=O)N3CCCC(N3)C(=O)OCC(C)(C)C2)C1,IC50,second compound 0.000949 µM,0.0568 µM
same,IC50,second compound 0.003 µM,0.0577 µM
same,IC50,second compound 0.00949 µM,0.0484 µM
same,IC50,second compound 0.03 µM,0.0615 µM
same,IC50,second compound 0.0949 µM,0.0574 µM
same,IC50,second compound 0.3 µM,0.0498 µM
same,"viability, T/C","second compound 0.000949 µM, first compound 0.000316 µM",95.8%
same,"viability, T/C","second compound 0.000949 µM, first compound 0.001 µM",93.2%
same,"viability, T/C","second compound 0.000949 µM, first compound 0.00316 µM",88.7%
same,"viability, T/C","second compound 0.000949 µM, first compound 0.01 µM",74.5%
same,"viability, T/C",[1],63.6%
same,"viability, T/C",[2],38%
same,"viability, T/C","second compound 0.003 µM, first compound 0.000316 µM",102%
same,"viability, T/C","second compound 0.003 µM, first compound 0.001 µM",90.6%
same,"viability, T/C","second compound 0.003 µM, first compound 0.00316 µM",86.7%
same,"viability, T/C","second compound 0.003 µM, first compound 0.01 µM",77.6%
same,"viability, T/C",[7],64.8%
same,"viability, T/C",[8],37.7%
same,"viability, T/C","second compound 0.00949 µM, first compound 0.000316 µM",99.3%
same,"viability, T/C","second compound 0.00949 µM, first compound 0.001 µM",97.8%
same,"viability, T/C","second compound 0.00949 µM, first compound 0.00316 µM",96%
same,"viability, T/C","second compound 0.00949 µM, first compound 0.01 µM",77.3%
same,"viability, T/C",[13],60%
same,"viability, T/C",[14],34.9%
same,"viability, T/C","second compound 0.03 µM, first compound 0.000316 µM",100%
same,"viability, T/C","second compound 0.03 µM, first compound 0.001 µM",87.6%
same,"viability, T/C","second compound 0.03 µM, first compound 0.00316 µM",89.1%
same,"viability, T/C","second compound 0.03 µM, first compound 0.01 µM",82.5%
same,"viability, T/C",[19],60.5%
same,"viability, T/C",[20],41.3%
same,"viability, T/C","second compound 0.0949 µM, first compound 0.000316 µM",93%
same,"viability, T/C","second compound 0.0949 µM, first compound 0.001 µM",95.6%
same,"viability, T/C","second compound 0.0949 µM, first compound 0.00316 µM",80.2%
same,"viability, T/C","second compound 0.0949 µM, first compound 0.01 µM",78.6%
same,"viability, T/C",[25],63.8%
same,"viability, T/C",[26],37.9%
same,"viability, T/C","second compound 0.3 µM, first compound 0.000316 µM",84.3%
same,"viability, T/C","second compound 0.3 µM, first compound 0.001 µM",89.4%
same,"viability, T/C","second compound 0.3 µM, first compound 0.00316 µM",77.2%
same,"viability, T/C","second compound 0.3 µM, first compound 0.01 µM",72.5%
same,"viability, T/C",[31],58.9%
same,"viability, T/C",[32],36.8%
CC(Nc1ccc2c(c1)OCCn1cc(N3C(=O)OCC3C(F)F)nc1-2)C(N)=O (stereo not drawn) + CCn1c(-c2cccnc2C(C)OC)c2c3cc(ccc31)N1CCOC(CC(NC(=O)C(C(C)C)N(C)C(=O)C3(F)CCN(C(=O)C#CC(C)(C)N(C)C)CC3)C(=O)N3CCCC(N3)C(=O)OCC(C)(C)C2)C1,IC50,second compound 0.000949 µM,> 10 µM
same,IC50,second compound 0.003 µM,> 10 µM
same,IC50,second compound 0.00949 µM,9.58 µM
same,IC50,second compound 0.03 µM,7.84 µM
same,IC50,second compound 0.0949 µM,> 10 µM
same,IC50,second compound 0.3 µM,7.83 µM
same,"viability, T/C",[1],96.7%
same,"viability, T/C",[2],83.7%
same,"viability, T/C",[3],73%
same,"viability, T/C",[4],79.4%
same,"viability, T/C",[5],59.8%
same,"viability, T/C",[6],50.9%
same,"viability, T/C",[7],102%
same,"viability, T/C",[8],82.3%
same,"viability, T/C",[9],82.7%
same,"viability, T/C",[10],67.4%
same,"viability, T/C",[11],66.7%
same,"viability, T/C",[12],50.1%
same,"viability, T/C",[13],87.1%
same,"viability, T/C",[14],89.5%
same,"viability, T/C",[15],80.7%
same,"viability, T/C",[16],69%
same,"viability, T/C",[17],68%
same,"viability, T/C",[18],48.1%
same,"viability, T/C",[19],92.4%
same,"viability, T/C",[20],83.6%
same,"viability, T/C",[21],80.7%
same,"viability, T/C",[22],69.6%
same,"viability, T/C",[23],66.3%
same,"viability, T/C",[24],44.4%
same,"viability, T/C",[25],95.8%
same,"viability, T/C",[26],79.1%
same,"viability, T/C",[27],72.3%
same,"viability, T/C",[28],71.4%
same,"viability, T/C",[29],62.9%
same,"viability, T/C",[30],50.8%
same,"viability, T/C",[31],76.7%
same,"viability, T/C",[32],71%
same,"viability, T/C",[33],70.8%
same,"viability, T/C",[34],64.9%
same,"viability, T/C",[35],61.4%
same,"viability, T/C",[36],46.6%
C[C@@H](NC(=O)c1ncnc(N)c1Cl)c1ncc(C(=O)Nc2cc(C(F)(F)F)c(Cl)cn2)s1 + CCn1c(-c2cccnc2C(C)OC)c2c3cc(ccc31)N1CCOC(CC(NC(=O)C(C(C)C)N(C)C(=O)C3(F)CCN(C(=O)C#CC(C)(C)N(C)C)CC3)C(=O)N3CCCC(N3)C(=O)OCC(C)(C)C2)C1,IC50,second compound 0.000949 µM,> 10 µM
same,IC50,second compound 0.003 µM,> 10 µM
same,IC50,second compound 0.00949 µM,> 10 µM
same,IC50,second compound 0.03 µM,> 10 µM
same,IC50,second compound 0.0949 µM,> 10 µM
same,IC50,second compound 0.3 µM,> 10 µM
same,"viability, T/C",[1],113%
same,"viability, T/C",[2],113%
same,"viability, T/C",[3],115%
same,"viability, T/C",[4],123%
same,"viability, T/C",[5],117%
same,"viability, T/C",[6],94.7%
same,"viability, T/C",[7],117%
same,"viability, T/C",[8],102%
same,"viability, T/C",[9],119%
same,"viability, T/C",[10],108%
same,"viability, T/C",[11],121%
same,"viability, T/C",[12],96.7%
same,"viability, T/C",[13],105%
same,"viability, T/C",[14],109%
same,"viability, T/C",[15],113%
same,"viability, T/C",[16],108%
same,"viability, T/C",[17],123%
same,"viability, T/C",[18],105%
same,"viability, T/C",[19],113%
same,"viability, T/C",[20],102%
same,"viability, T/C",[21],102%
same,"viability, T/C",[22],109%
same,"viability, T/C",[23],117%
same,"viability, T/C",[24],91.1%
same,"viability, T/C",[25],93.4%
same,"viability, T/C",[26],115%
same,"viability, T/C",[27],110%
same,"viability, T/C",[28],119%
same,"viability, T/C",[29],113%
same,"viability, T/C",[30],90.7%
same,"viability, T/C",[31],87.3%
same,"viability, T/C",[32],108%
same,"viability, T/C",[33],99.6%
same,"viability, T/C",[34],104%
same,"viability, T/C",[35],115%
same,"viability, T/C",[36],88%
